The values below come from patent US12208077B2, “Synergistic composition for potentiating stabilized ATP” (CELAGENEX RESEARCH (INDIA) PVT. LTD., priority 2021, dated 2025).

For series [1] the following is noted: cited from earlier work.
For the next series, the system named is erythrocytes. Conditions: humans; after 24 h of continuous infusion; dose-dependent; cited from earlier work.
The conditions of series [2]: cited from earlier work. The source holds these as a separate data set.
Another series has as its system HepG2 cells. As to the kind of experiment: Estimation of cellular ATP levels in HepG2 cells (BioVision kit). The class given is cell-based, human. Conditions: 24 hr treatment, amount of each test substance as in the group name (Table 1/3). As to the method:
In vitro evaluation of the modulatory potential of the test substances on cellular ATP levels in (HepG2) human Hepatocellular carcinoma cell line.
(§1) About 10 mg of all the test substances were dissolved separately with 1 ml DMEM-HG supplemented with 2% inactivated FBS to obtain a stock solution of 10 mg/ml concentration and sterilized by 0.22u syringe filtration. Diluted the stock to desired concentration for carrying out further studies.
(§2) Cell line HepG2 was procured from NCCS (National Center for Cell Sciences), Pune, and was cultured in DMEM-HG supplemented with 10% inactivated Fetal Bovine Serum (FBS), penicillin (100 IU/ml), streptomycin (100 μg/ml) and amphotericin B (5 μg/ml) in a humidified atmosphere of 5% CO2 at 37° C. until confluent. The cells were dissociated with TPVG solution (0.2% trypsin, 0.02% EDTA, 0.05% glucose in PBS). The stock cultures were grown in 25 cm^2 culture flasks and all experiments were carried out in 96 well microtitre plates (Tarsons India Pvt. Ltd., Kolkata, India).
HepG2 cells were trypsinized from stock culture flasks and the cell count was adjusted to 1.0×10^5cells/ml, the cell suspension was seeded into a 96-well plate. After 24 hr, cell cultures with 70-80% confluency, cells were treated with different non-toxic concentrations of test substances. After 24 hr of treatment, the plate was washed with phosphate buffer saline. The cellular ATP levels determination was performed according to the instruction given in the kit manual (BioVision, #K354-100). At the end of the experiment, the optical density was read at 570 nm using microplate reader. From the absorbance values, the cellular ATP levels were estimated using kit protocol and the concentration of cellular ATP levels in treated groups were determined in comparison to the control groups.

Another series deals with HepG2 cell line. Description: In vitro cytotoxicity by MTT assay on HepG2 cell line. Conditions: Homo sapiens, concentration needed to inhibit growth of the cell by 50%, 24 h, read-out: CTC50. Type of series: cell-based, human. As to the method: (§3) The in vitro cytotoxicity was performed on HepG2 (Human Hepatocellular Carcinoma) cell line to find the non-toxic concentrations of the test substances by MTT assay and evaluate their modulatory potential on cellular ATP levels
as §1, §2
(§4) The monolayer cell culture was trypsinized and the cell count was adjusted to 1.0×10^5cells/ml using DMEM-HG containing 10% FBS. To each well of the 96 well microtitre plate, 0.1 ml of the diluted cell suspension was added. After 24 h, when a partial monolayer was formed, the supernatant was flicked off, the monolayer was washed once with medium and 100 μl of different concentrations of test substances were added. The plate was then incubated at 37° C. for 24 h in a 5% CO2 atmosphere, and microscopic examination was carried out and observations were noted after 24 h time.
(§5) After 24 h of incubation, the drug solutions in the wells were discarded and 50 μl of MTT in DPBS was added to each well. The plate was gently shaken and incubated for 3 h at 37° C. in a 5% CO2 atmosphere. The supernatant was removed and 100 μl of 2-propanol was added and the plate was gently shaken to solubilize the formed formazan. The absorbance was measured using a microplate reader at a wavelength of 570 nm. The percentage growth inhibition was calculated using the standard formula. The concentration of test substances, needed to inhibit the growth of the cell by 50% i.e., CTC50 values were generated from the dose-response curves
For orientation: Formazan colour is commonly taken as a measure of viable cells.

Test in series [3]: as above
The class given is cell-based, human. Conditions: human, HepG2 cells; for cytotoxicity at 24 h, 62.5 μg/mL: Test Conc. 62.5 μg/mL; for cytotoxicity at 24 h, 125 μg/mL: Test Conc. 125 μg/mL; for cytotoxicity at 24 h, 250 μg/mL: Test Conc. 250 μg/mL; for cytotoxicity at 24 h, 500 μg/mL: Test Conc. 500 μg/mL; for cytotoxicity at 24 h, 1000 μg/mL: Test Conc. 1000 μg/mL; for cytotoxicity at 24 h, 2000 μg/mL: Test Conc. 2000 μg/mL; for cytotoxicity at 24 h, 3000 μg/mL: Test Conc. 3000 μg/mL; for cytotoxicity at 24 h, 4000 μg/mL: Test Conc. 4000 μg/mL; for cytotoxicity at 24 h, 5000 μg/mL: Test Conc. 5000 μg/mL. As to the method: as §3, §1, §2, §4, §5

A further series relates to MS-related fatigue. Conditions: treatment of MS-related fatigue; cited from earlier work.
Series [4] concerns Patients with hepatic encephalopathy (HE). Conditions: patients with hepatic encephalopathy treated with ALCAR; cited from earlier work.

For `Nc1ncnc2c1ncn2[C@@H]1O[C@H](COP(=O)(O)OP(=O)(O)OP(=O)(O)O)[C@@H](O)[C@H]1O` [ATP, Adenosine triphosphate], in series [1], the “half-life of infused ATP” value was “less than one”. In the series with erythrocytes, the “increase of ATP concentrations in erythrocytes” value was roughly 60%. Also, the “stability in acidic conditions” value in series [2] was “quickly decompose”. For the same molecule, in the series on HepG2 cells, the “Cellular ATP” value was 119.88 ± 0.45 nM and the “Percentage enhancement of cellular ATP levels over cell control” value (from here on “Percentage enhancement”) is 230.33%.

As to `OO` [Composition H2O2, H2O2, reference compound], in the series with HepG2 cells, the “Cellular ATP” value is 22.35 ± 0.48 nM and the “Percentage enhancement” value is listed as −38.40%.

For `CC(=O)NCCS(=O)(=O)O` [Magnesium Acetyl Taurate, magnesium; 2-acetamidoethanesulfonate; dihydrate], in the series with HepG2 cells, the “Cellular ATP” value is listed as 56.28 ± 0.56 nM and the “Percentage enhancement” value is recorded as 55.07%. Also, in the series with HepG2 cell line, the IC50 is greater than 5000 µg/mL. For the same molecule, in series [3], the cytotoxicity at 24 h, 62.5 μg/mL was found to be 1.31 ± 0.231%; the cytotoxicity at 24 h, 125 μg/mL was determined as 1.25 ± 0.91%; the cytotoxicity at 24 h, 250 μg/mL was 1.75 ± 0.43%; the cytotoxicity at 24 h, 500 μg/mL worked out at 1.53 ± 0.408%. Further, in series [3], the cytotoxicity at 24 h, 1000 μg/mL amounted to 1.36 ± 0.967%; the cytotoxicity at 24 h, 2000 μg/mL was determined as 6.55 ± 0.482%; the cytotoxicity at 24 h, 3000 μg/mL was determined as 3.71 ± 1.34%; the cytotoxicity at 24 h, 4000 μg/mL came to 6.17 ± 2.39%. Moreover, the cytotoxicity at 24 h, 5000 μg/mL in series [3] came to 12.2 ± 1.56%.

Regarding `CC(=O)O[C@H](CC(=O)O)C[N+](C)(C)C` [N-Acetyl L carnitine, (3R)-3-acetyloxy-4-(trimethylazaniumyl) butanoate], the “efficacy compared with amantadine” value in the series with MS-related fatigue is given as “more effective”. In the series with HepG2 cells, the “Cellular ATP” value is reported as 39.92 ± 0.45 nM and the “Percentage enhancement” value is 10.00%. In series [4], the physical activity entry was “increase”; the “severity of mental and physical fatigue” value is reported as “decrease”. The IC50 in the series on HepG2 cell line was greater than 5000 µg/mL. For the same molecule, in series [3], the cytotoxicity at 24 h, 62.5 μg/mL is 0.982 ± 0.876%; the cytotoxicity at 24 h, 125 μg/mL is 0.546 ± 0.408%; the cytotoxicity at 24 h, 250 μg/mL is 1.31 ± 0.134%; the cytotoxicity at 24 h, 500 μg/mL was found to be 1.69 ± 0.204%. In series [3], the cytotoxicity at 24 h, 1000 μg/mL was 2.46 ± 1.58%; the cytotoxicity at 24 h, 2000 μg/mL is 2.62 ± 0.964%; the cytotoxicity at 24 h, 3000 μg/mL was 3 ± 0.736%; the cytotoxicity at 24 h, 4000 μg/mL was 5.18 ± 2.68%. Further, the cytotoxicity at 24 h, 5000 μg/mL in series [3] is 32.6 ± 2.55%.
